From US20220213030A1, “AMINOGUANIDINE HYDRAZONES AS RETROMER STABILIZERS USEFUL FOR TREATING NEUROLOGICAL DISEASES” (OSPEDALE SAN RAFFAELE SRL, priority 2019, published 2022)

Legend:
VPS35 [1] = target: T1, VPS35 (Mus musculus, UniProt Q9EQH3+Q9QZ88); test: VPS35 levels in spinal cord extracts of C57BL6J mice by western blot; type: in vivo; parameters: Lumbar spinal cords were dissected from saline perfused mice and rapidly homogenized; from tissue; host or cells: lumbar spinal cord of mice; conditions: 10 mg/kg daily intraperitoneal for 7 days
Method: We next asked whether the compound 2a can cross the blood brain barrier (BBB) of the brain. We run a pharmacokinetic assay on C57BL6J mice that received daily intraperitoneal injections of compound 2a (10 mg/Kg/day). Mice were sacrificed after 1, 7, 15 and 30 days saline perfused to avoid the CNS contamination of compounds contained in blood circulation and brains used for the determination of compound 2a levels by mass spectrometry. […] We next investigated in vivo if the retromer stabilization occurs in response to Compound 2a treatment. We intraperitoneally injected R55 and Compound 2a in adult C57BL6J mice as above described. After one week, mice were sacrificed, proteins extracts were assayed by western blot.
Lumbar spinal cords were dissected from saline perfused mice and rapidly homogenized in the following lysis buffer: Tris-HCl 10 mM pH 8, EDTA pH 8 1 mM, NaCl 100 mM, NP40 1% and protease inhibitor cocktail (Sigma). Protein extracts were obtained using a tight-fitting glass Potter tissue grinder (1 ml; Wheaton) and then sonicated at a frequency of 20 kHz (10 times-1s). […] Protein concentrations were measured by BCA protein assay kit (Thermofisher) according to the manufacturer's recommendations. […] Quantifications were done using the Image Lab 6.0.1 software (Bio-Rad).

VPS35 [2] = target: VPS35 (Homo sapiens, UniProt Q96QK1+Q9UBQ0); parameters: host or cells: neuronal cultures; conditions: neuronal cultures; cited from earlier work
Aβ42 = conditions: wild type and APP-mutated hippocampal neurons; cited from earlier work
CMC = CMC (Homo sapiens, UniProt Q96QK1+Q9UBQ0); conditions: in vitro; cited from earlier work
VPS35 [3] = target: T1, VPS35; test: VPS35 levels in Neuro2a cells by Western blot (screening of amino guanidine hydrazones); type: cell-based; parameters: endogenous in cells; host or cells: Neuro2a; conditions: 48 hours, compounds at 10 μM
Method: To functionally screen the majority of synthetized amino guanidine hydrazones of the invention and determine their effects on the retromer complex, we incubated Neuro2a cells with each synthetized molecule at the concentration of 10 μM.
The test was executed in triplicate for each tested compound of the invention, cells lysates were established after 48 hours' incubation, and levels of VPS35 were normalized on the housekeeping gene β-Actin by Western blot. We observed a preliminary SAR among the compounds.
Fold changes are calculated over normalized VPS35 levels measured in vehicle-treated cells.
Neuro2a cells were seeded on 12 wells multiwell at the concentration of 100 000 cells/well. Cells were incubated with each compound, including the standard R55, at 10 μM for 48 hours. Cells were then washed in PBS 1× and lysed in a buffer containing Tris-HCl 10 mM pH8, EDTA 1 mM pH8, NaCl 100 mM, NP40 1%, with protease inhibitor cocktail (Sigma) 1×. Using a cell scraper total lysates were collected from each well, quantified with BCA (BCA protein assay, Thermofisher). Five μg were resolved on precast 10% acrylamide gel (Biorad). Proteins were transferred to a PVDF membrane (Millipore) and western blot were performed using the following antibodies: goat αVPS35 (1:1000), mouse α-βActin (1:10000). Detection of proteins was obtained by a chemiluminescence detection kit (PerkinElmer).

Aβ40 = conditions: wild type and APP-mutated hippocampal neurons; cited from earlier work
neuronal cultures = conditions: cited from earlier work
VPS26 = conditions: neuronal cultures; cited from earlier work

VPS35 levels in SC extracts (ratio versus vehicle-treated mice) (VPS35 [1]): did not increase VPS35 levels
Structure (SMILES): N=C(N)SCc1ccc(CSC(=N)N)s1 [Compound R55]
VPS35 levels (VPS35 [2]): ≈ 180%
reduction of Aβ42 levels (Aβ42): up to 39%
increase in denaturation temperature (CMC): ≈ 10 °C
VPS35 levels (in words) (VPS35 [3]): efficiently and dose-dependently increased VPS35 levels
reduction of Aβ40 levels (Aβ40): up to 44%
not toxic up to (concentration) (neuronal cultures): up to 50 μM
VPS26 levels (VPS26): ≈ 150%
